In patent US20260345619A1 (Principia Biopharma Inc., priority 2023, published 2026):

Assay: Pre-bronchodilator FEV1 and percent predicted FEV1 by spirometry, change from baseline
Assay type: in vivo, human
Conditions: 400 mg BID
Protocol: Spirometry is a standard test to measure patients' lung function.
The primary endpoint was the proportion of patients with LOAC. The key secondary endpoint for the study was change in pre-bronchodilator FEV1 from baseline at EOT.
Reversibility is defined as an increase of the absolute FEV1 after administration of bronchodilator and is measured by spirometry as postbronchodilator increase in FEV1 in percent of the prebronchodilator FEV1. After spirometry for measuring prebronchodilator FEV1, participants were to receive 2-4 puffs of albuterol/salbutamol or levalbuterol/levosalbutamol from a primed MDI. The postbronchodilator spirometry may have been repeated several times within 30 minutes after administration of bronchodilator. Alternatively, and only if it was consistent with usual office practice (to be documented), reversibility may have been performed using inhalation of nebulized albuterol/salbutamol or levalbuterol/levosalbutamol.
Secondary endpoints included pre-bronchodilator FEV1 change from baseline at EOT, ACQ-5 score change from baseline, and AQLQ score change from baseline. Other secondary and exploratory endpoints are described in Table 2.

[1] = Week 12, baseline weight ≥90 kg
[2] = Week 12, smoking history Former
[3] = EOT (Week 12), all others, mITT
[4] = Week 2, before LOAC and OCS use, as observed, mITT
[5] = Week 2, observed/LOCF imputed, mITT
[6] = Week 2, on-site conventional spirometry as observed, mITT
[7] = Week 4, before LOAC and OCS use, as observed, mITT
[8] = Week 4, observed/LOCF imputed, mITT
[9] = Week 4, on-site conventional spirometry as observed, mITT
[10] = Week 6, before LOAC and OCS use, as observed, mITT
[11] = Week 6, observed/LOCF imputed, mITT
[12] = Week 6, on-site conventional spirometry as observed, mITT
[13] = Week 8, before LOAC and OCS use, as observed, mITT
[14] = Week 8, observed/LOCF imputed, mITT
[15] = Week 8, on-site conventional spirometry as observed, mITT
[16] = Week 10, before LOAC and OCS use, as observed, mITT
[17] = Week 10, observed/LOCF imputed, mITT
[18] = Week 10, on-site conventional spirometry as observed, mITT
[19] = Week 12 (EOT), MMRM supplementary analysis, mITT
[20] = Week 12, before LOAC and OCS use, as observed, mITT

What does the source list for `CC(C)(C=C(C#N)C(=O)N1CCC[C@@H](n2nc(-c3ccc(Oc4ccccc4)cc3F)c3c(N)ncnc32)C1)N1CCN(C2COC2)CC1` (mixture of isomers) [rilzabrutinib, (R)-2-[3-[4-amino-3-(2-fluoro-4-phenoxy-phenyl)pyrazolo[3,4-d]pyrimidin-1-yl]piperidine-1-carbonyl]-4-methyl-4-[4-(oxetan-3-yl)piperazin-1-yl]pent-2-enenitrile]?
Pre-bronchodilator FEV1 change from baseline, LS Mean [1]: -0.25 L; Pre-bronchodilator FEV1 change from baseline, LS Mean Diff vs. placebo [1]: -0.37 L; Pre-bronchodilator FEV1 change from baseline, Mean [1]: -0.17 L; Pre-bronchodilator FEV1 change from baseline, LS Mean (Week 12, female): 0.00 L; Pre-bronchodilator FEV1 change from baseline, LS Mean Diff vs. placebo (Week 12, female): 0.04 L; Pre-bronchodilator FEV1 change from baseline, Mean (Week 12, female): -0.01 L; Pre-bronchodilator FEV1 change from baseline, LS Mean (Week 12, male): -0.23 L; Pre-bronchodilator FEV1 change from baseline, LS Mean Diff vs. placebo (Week 12, male): -0.16 L; Pre-bronchodilator FEV1 change from baseline, Mean (Week 12, male): -0.08 L; Pre-bronchodilator FEV1 change from baseline, LS Mean [2]: -0.57 L; Pre-bronchodilator FEV1 change from baseline, LS Mean Diff vs. placebo [2]: -0.21 L; Pre-bronchodilator FEV1 change from baseline, Mean [2]: -0.36 L; Pre-bronchodilator FEV1 change from baseline, LS Mean (Week 12, smoking history Never): -0.05 L; Pre-bronchodilator FEV1 change from baseline, LS Mean Diff vs. placebo (Week 12, smoking history Never): 0.03 L; Pre-bronchodilator FEV1 change from baseline, Mean (Week 12, smoking history Never): 0.02 L; Difference vs. placebo, LS mean change in pre-bronchodilator FEV1 (L) at Week 12 (95% CI −0.17, 0.19, p=0.9466): 0.01 L; Change from baseline in pre-bronchodilator FEV1, LS Mean (SE) [3]: -0.05 L; Change from baseline in pre-bronchodilator FEV1, LS Mean Diff vs. placebo (95% CI) [3]: 0.03 L; Change from baseline in pre-bronchodilator FEV1, Mean (SD) (EOT (Week 12), all others, mITT, n=22): -0.02 L; Change from baseline in pre-bronchodilator FEV1, Mean (SD) (EOT (Week 12), low EOS (<0.15) and low FeNO (<25), mITT, n=3): -0.17 L; LS Mean change from baseline in pre-bronchodilator FEV1 (L) at Week 12 (N=32, mITT): −0.07 (0.08) L; Pre-bronchodilator FEV1, mean [4]: 2.20 L; Pre-bronchodilator FEV1, median [4]: 2.08 L; Pre-bronchodilator FEV1 change from baseline, Mean [4]: 0.08 L; Pre-bronchodilator FEV1 change from baseline, median [4]: 0.04 L; Pre-bronchodilator FEV1 percent change from baseline, mean [4]: 4.47%; Pre-bronchodilator FEV1 percent change from baseline, median [4]: 2.02%; Pre-bronchodilator FEV1, mean [5]: 2.20 L; Pre-bronchodilator FEV1, median [5]: 2.08 L; Pre-bronchodilator FEV1 change from baseline, LS Mean [5]: 0.06 L; Pre-bronchodilator FEV1 change from baseline, LS Mean Diff vs. placebo [5]: 0.00 L; Pre-bronchodilator FEV1 change from baseline, Mean [5]: 0.08 L; Pre-bronchodilator FEV1 change from baseline, median [5]: 0.04 L; Pre-bronchodilator FEV1, mean [6]: 2.20 L; Pre-bronchodilator FEV1, median [6]: 2.08 L; Pre-bronchodilator FEV1 change from baseline, Mean [6]: 0.08 L; Pre-bronchodilator FEV1 change from baseline, median [6]: 0.04 L; Pre-bronchodilator FEV1 percent change from baseline, mean [6]: 4.47%; Pre-bronchodilator FEV1 percent change from baseline, median [6]: 2.02%; Pre-bronchodilator FEV1, mean [7]: 2.05 L; Pre-bronchodilator FEV1, median [7]: 1.96 L; Pre-bronchodilator FEV1 change from baseline, Mean [7]: 0.07 L; Pre-bronchodilator FEV1 change from baseline, median [7]: 0.02 L; Pre-bronchodilator FEV1 percent change from baseline, mean [7]: 3.72%; Pre-bronchodilator FEV1 percent change from baseline, median [7]: 0.55%; Pre-bronchodilator FEV1, mean [8]: 2.07 L; Pre-bronchodilator FEV1, median [8]: 1.96 L; Pre-bronchodilator FEV1 change from baseline, LS Mean [8]: 0.08 L; Pre-bronchodilator FEV1 change from baseline, LS Mean Diff vs. placebo [8]: -0.01 L; Pre-bronchodilator FEV1 change from baseline, Mean [8]: 0.07 L; Pre-bronchodilator FEV1 change from baseline, median [8]: 0.02 L; Pre-bronchodilator FEV1, mean [9]: 2.05 L; Pre-bronchodilator FEV1, median [9]: 1.96 L; Pre-bronchodilator FEV1 change from baseline, Mean [9]: 0.07 L; Pre-bronchodilator FEV1 change from baseline, median [9]: 0.02 L; Pre-bronchodilator FEV1 percent change from baseline, mean [9]: 3.72%; Pre-bronchodilator FEV1 percent change from baseline, median [9]: 0.55%; Pre-bronchodilator FEV1, mean [10]: 2.24 L; Pre-bronchodilator FEV1, median [10]: 2.01 L; Pre-bronchodilator FEV1 change from baseline, Mean [10]: 0.09 L; Pre-bronchodilator FEV1 change from baseline, median [10]: 0.07 L; Pre-bronchodilator FEV1 percent change from baseline, mean [10]: 3.99%; Pre-bronchodilator FEV1 percent change from baseline, median [10]: 3.66%; Pre-bronchodilator FEV1, mean [11]: 2.24 L; Pre-bronchodilator FEV1, median [11]: 2.01 L; Pre-bronchodilator FEV1 change from baseline, LS Mean [11]: -0.03 L; Pre-bronchodilator FEV1 change from baseline, LS Mean Diff vs. placebo [11]: -0.03 L; Pre-bronchodilator FEV1 change from baseline, Mean [11]: 0.09 L; Pre-bronchodilator FEV1 change from baseline, median [11]: 0.07 L; Pre-bronchodilator FEV1, mean [12]: 2.24 L; Pre-bronchodilator FEV1, median [12]: 2.06 L; Pre-bronchodilator FEV1 change from baseline, Mean [12]: 0.10 L; Pre-bronchodilator FEV1 change from baseline, median [12]: 0.07 L; Pre-bronchodilator FEV1 percent change from baseline, mean [12]: 4.61%; Pre-bronchodilator FEV1 percent change from baseline, median [12]: 5.14%; Pre-bronchodilator FEV1, mean [13]: 2.10 L; Pre-bronchodilator FEV1, median [13]: 1.83 L; Pre-bronchodilator FEV1 change from baseline, Mean [13]: 0.08 L; Pre-bronchodilator FEV1 change from baseline, median [13]: 0.11 L; Pre-bronchodilator FEV1 percent change from baseline, mean [13]: 3.28%; Pre-bronchodilator FEV1 percent change from baseline, median [13]: 3.73%; Pre-bronchodilator FEV1, mean [14]: 2.09 L; Pre-bronchodilator FEV1, median [14]: 1.83 L; Pre-bronchodilator FEV1 change from baseline, LS Mean [14]: -0.00 L; Pre-bronchodilator FEV1 change from baseline, LS Mean Diff vs. placebo [14]: 0.02 L; Pre-bronchodilator FEV1 change from baseline, Mean [14]: 0.04 L; Pre-bronchodilator FEV1 change from baseline, median [14]: 0.05 L; Pre-bronchodilator FEV1, mean [15]: 2.08 L; Pre-bronchodilator FEV1, median [15]: 1.86 L; Pre-bronchodilator FEV1 change from baseline, Mean [15]: 0.08 L; Pre-bronchodilator FEV1 change from baseline, median [15]: 0.09 L; Pre-bronchodilator FEV1 percent change from baseline, mean [15]: 3.30%; Pre-bronchodilator FEV1 percent change from baseline, median [15]: 3.64%; Pre-bronchodilator FEV1, mean [16]: 2.29 L; Pre-bronchodilator FEV1, median [16]: 1.93 L; Pre-bronchodilator FEV1 change from baseline, Mean [16]: 0.21 L; Pre-bronchodilator FEV1 change from baseline, median [16]: 0.12 L; Pre-bronchodilator FEV1 percent change from baseline, mean [16]: 10.71%; Pre-bronchodilator FEV1 percent change from baseline, median [16]: 4.52%; Pre-bronchodilator FEV1, mean [17]: 2.24 L; Pre-bronchodilator FEV1, median [17]: 1.93 L; Pre-bronchodilator FEV1 change from baseline, LS Mean [17]: 0.02 L; Pre-bronchodilator FEV1 change from baseline, LS Mean Diff vs. placebo [17]: 0.06 L; Pre-bronchodilator FEV1 change from baseline, Mean [17]: 0.13 L; Pre-bronchodilator FEV1 change from baseline, median [17]: 0.09 L; Pre-bronchodilator FEV1, mean [18]: 2.29 L; Pre-bronchodilator FEV1, median [18]: 1.93 L; Pre-bronchodilator FEV1 change from baseline, Mean [18]: 0.21 L; Pre-bronchodilator FEV1 change from baseline, median [18]: 0.12 L; Pre-bronchodilator FEV1 percent change from baseline, mean [18]: 10.71%; Pre-bronchodilator FEV1 percent change from baseline, median [18]: 4.52%; Change from baseline in pre-bronchodilator FEV1, Mean [19]: -0.02 L; Change from baseline in pre-bronchodilator FEV1, Median [19]: -0.04 L; Pre-bronchodilator FEV1, Mean [19]: 2.01 L; Pre-bronchodilator FEV1, Median [19]: 1.88 L; Change from baseline in pre-bronchodilator FEV1, LS Mean (Week 12 (EOT), MMRM, mITT): -0.01 L; Change from baseline in pre-bronchodilator FEV1, LS Mean diff vs. placebo (Week 12 (EOT), MMRM, mITT): 0.00 L; Pre-bronchodilator FEV1, mean [20]: 2.01 L; Pre-bronchodilator FEV1, median [20]: 1.88 L; Pre-bronchodilator FEV1 change from baseline, Mean [20]: -0.02 L
